This is an account of results in publication PMC9886279, “A choline-releasing glycerophosphodiesterase essential for phosphatidylcholine biosynthesis and blood stage development in the malaria parasite” (eLife, 2022).

The target of this assay is T1, PfGDPD-HA (PfGDPD; glycerophosphodiesterase) (Plasmodium falciparum, UniProt Q8IM31).
T1 construct: gene PF3D7_1406300; endogenous locus, recodonised segment 24-475 aa, C-terminal 3xHA tag kept; 475-residue precursor with N-terminal signal peptide
In words: LC-MS/MS of GPC consumption and choline release by bead-bound affinity-purified enzyme. The assay is classed as biochemical. Conditions: enzyme immobilised on anti-HA beads; 100 mM HEPES pH 7.5, 150 mM NaCl, 10 mM MgCl2, 37°C; GPC 1 mM (Methods) or 10 mM (Figure 6 legend).

T1 sequence (Q8IM31 entry or part of it): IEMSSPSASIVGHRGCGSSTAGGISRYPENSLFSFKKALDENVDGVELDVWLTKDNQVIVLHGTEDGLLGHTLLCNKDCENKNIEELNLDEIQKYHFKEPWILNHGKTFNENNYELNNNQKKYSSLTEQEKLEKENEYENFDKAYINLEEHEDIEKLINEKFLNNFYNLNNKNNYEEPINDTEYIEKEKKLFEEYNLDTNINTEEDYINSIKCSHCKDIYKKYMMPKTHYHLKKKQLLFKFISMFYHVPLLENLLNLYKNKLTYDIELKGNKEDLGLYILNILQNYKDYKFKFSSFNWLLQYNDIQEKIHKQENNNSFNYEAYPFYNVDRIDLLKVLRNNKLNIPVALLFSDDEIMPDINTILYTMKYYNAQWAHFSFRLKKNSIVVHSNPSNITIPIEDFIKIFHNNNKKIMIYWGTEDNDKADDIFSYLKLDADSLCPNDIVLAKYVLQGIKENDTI

As to `C[N+](C)(C)CCOP(=O)([O-])OC[C@H](O)CO` [GPC], the “LC-MS/MS of GPC consumption and choline release by bead-bound affinity-purified” value was “resulted in the time-dependent appearance of choline with a concomitant decrease in GPC levels”.
